In patent US12397067B2, “Sulfur- or heavy atom-containing nanoparticles, methods of making same, and uses thereof” (Cornell University, priority 2017, dated 2025):

Key:
[1] = Singlet oxygen quantum yield determination with DPBF sensor, relative to methylene blue; conditions: FIG. 15b inset, 635 nm exposure
Experimental: Determination of singlet oxygen quantum yields, ΦΔ. Measurements were carried out in ethanol with DPBF as a singlet oxygen detector molecule. The DPBF band at 410 nm and λmax of each dye were absorption matched across a particle series. For measurements of effective ΦΔ samples were concentration matched. The spectra were exposed and measured in a 100 μL quartz cuvette (Starna). Samples were evenly exposed to a 635 nm solid-state laser at 3 mW/cm^2 and 1 cm spot size. Measurements were started immediately after DPBF addition. The decrease of the 410 nm DPBF band was measured at various exposure times and corrected against a baseline. ΦΔ for each sample was calculated by comparing to MB (ΦΔ=0.520 in ethanol) as a standard (see example calculations).
Example calculation to determine singlet oxygen quantum yield, ΦΔ. ΦΔ(sample) is determined relative to a standard with known ΦΔ(standard) using equation (5):
[formula] Here, we used methylene blue (MB) as a standard with known ΦΔ(MB)=0.520. With the slopes, m, from the linear fits through the values of the 410 nm DPBF absorption band at different exposure times, ΦΔ(sample) can be calculated. With the values from FIG. 15b inset m(ATTO647N 7.5% iC′ dots)=0.00314 s^−1 and m(MB)=0.02506 s^−1, Φ^Δ (ATT0647N 7.5% iC′ dots)=0.520([…])=0.065.

[2] = in ethanol; cited from earlier work
[3] = tested on: BxPC3 pancreatic cancer cells; assay: Cell toxicity study, Presto Blue % viability; type: cell-based; conditions: 14 mM (10% of typical imaging concentration), 16 hours
Experimental: Cell toxicity studies. BxPC3 pancreatic cancer cells were maintained in RPMI 1640 supplemented with 10% FBS at 37° C. with 5% CO2. To measure effects of C′ dots or βME on cells, cells at ˜70% confluence were washed with PBS, exposed to trypsin, resuspended, and dispensed into 96-well tissue culture plates (20,000 cells per well). Cells were allowed to settle overnight, forming a monolayer ˜70-80% confluent. The medium was removed from each well, and replaced with medium supplemented with varying amounts of either 60% srC′ dots or βME, or with DMSO (carrier agent) alone as a control, as well as 1× Pen-Strep antibiotic. Cells were then incubated for 6 days (srC′ dots) or 16 hours ((ME). Following incubation, medium was removed, cells washed with fresh medium and then incubated for one hour with fresh medium and Presto Blue per the manufacturer's recommendations. The absorbance of the Presto Blue was determined at 570 nm (background 600 nm) using a Tecan Safire microplate reader. Absorption was compared to that of a blank (medium plus Presto Blue in unused wells) to determine % viability of remaining cells, with the DMSO control lane defined as 100% viability, and the empty wells defined as 0% viability. All experiments were performed in triplicate.

| SMILES | slope m of linear fit of ln relative DPBF absorption at 410 nm vs exposure time [1] [s^−1] | singlet oxygen quantum yield, ΦΔ (known value of standard) [2] | %-cell viability [3] |
| --- | --- | --- | --- |
| CN(C)c1ccc2nc3ccc(=[N+](C)C)cc-3sc2c1 [MB, methylene blue] | 0.02506 | 0.520 |  |
| OCCS [βME, β-mercaptoethanol] |  |  | substantial cell death |
